Data as given in the supplement of paper PMC10307832.

Experiments:
Experiment in all cases: relative viability (nuclei count vs DMSO), 5 days (fraction); higher = more cells survive
BAY61-3606 + Alpelisib = compound: COC1=C(C=C(C=C1)C2=CC3=NC=CN3C(=N2)NC4=C(C=CC=N4)C(=O)N)OC [BAY61-3606] + Cc1nc(NC(=O)N2CCC[C@H]2C(N)=O)sc1-c1ccnc(C(C)(C)C(F)(F)F)c1 [Alpelisib] (partner 2 µM)
Outline: (§1)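 Cells from lung cancer lines were seeded into 1536-well plates and, one day later, dosed by pin tool. Treatments were either a single drug or a fixed dose of an anchor drug with five library-drug doses (not always all listed) in √10 steps. After 5 days, nuclei were stained in a one-step fixation (final 0.05% Triton X-100, 1% formaldehyde, 1 ug/ml Hoechst) and counted on 4× images, and relative viability is the treated-to-vehicle nuclei ratio, as the median of duplicate plates.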

Doxorubicin + Bortezomib = compound: COc1cccc2c1C(=O)c1c(O)c3c(c(O)c1C2=O)C[C@@](O)(C(=O)CO)C[C@@H]3O[C@H]1C[C@H](N)[C@H](O)[C@H](C)O1 [Doxorubicin] + CC(C)C[C@H](NC(=O)[C@H](Cc1ccccc1)NC(=O)c1cnccn1)B(O)O [Bortezomib] (partner 0.002 µM)
Outline: as §1

Doxorubicin + Linsitinib = compound: COc1cccc2c1C(=O)c1c(O)c3c(c(O)c1C2=O)C[C@@](O)(C(=O)CO)C[C@@H]3O[C@H]1C[C@H](N)[C@H](O)[C@H](C)O1 [Doxorubicin] + C[C@]1(O)C[C@@H](c2nc(-c3ccc4ccc(-c5ccccc5)nc4c3)c3c(N)nccn32)C1 [Linsitinib] (partner 1 µM)
Outline: as §1

BAY61-3606 + Olaparib = compound: COC1=C(C=C(C=C1)C2=CC3=NC=CN3C(=N2)NC4=C(C=CC=N4)C(=O)N)OC [BAY61-3606] + O=C(c1cc(Cc2n[nH]c(=O)c3ccccc23)ccc1F)N1CCN(C(=O)C2CC2)CC1 [Olaparib] (partner 8 µM)
Outline: as §1

Row | Cell Line | relative viability (BAY61-3606 + Alpelisib; first compound 0.02 µM) | relative viability (BAY61-3606 + Alpelisib; first compound 0.06325 µM) | relative viability (BAY61-3606 + Alpelisib; first compound 0.2 µM) | relative viability (BAY61-3606 + Alpelisib; first compound 0.6325 µM) | relative viability (BAY61-3606 + Alpelisib; first compound 2 µM) | relative viability (Doxorubicin + Bortezomib; first compound 0.001 µM) | relative viability (Doxorubicin + Bortezomib; first compound 0.003162 µM) | relative viability (Doxorubicin + Bortezomib; first compound 0.01 µM) | relative viability (Doxorubicin + Bortezomib; first compound 0.03162 µM) | relative viability (Doxorubicin + Bortezomib; first compound 0.1 µM) | relative viability (Doxorubicin + Linsitinib; first compound 0.001 µM) | relative viability (Doxorubicin + Linsitinib; first compound 0.003162 µM) | relative viability (Doxorubicin + Linsitinib; first compound 0.01 µM) | relative viability (Doxorubicin + Linsitinib; first compound 0.03162 µM) | relative viability (Doxorubicin + Linsitinib; first compound 0.1 µM) | relative viability (BAY61-3606 + Olaparib; first compound 0.02 µM) | relative viability (BAY61-3606 + Olaparib; first compound 0.06325 µM) | relative viability (BAY61-3606 + Olaparib; first compound 0.2 µM) | relative viability (BAY61-3606 + Olaparib; first compound 0.6325 µM) | relative viability (BAY61-3606 + Olaparib; first compound 2 µM)
1 | NCI-H2228 | 0.702 | 0.654 | 0.782 | 0.736 | 0.561 | 0.88 | 1.05 | 0.617 | 0.254 | 0.124 | 0.825 | 0.615 | 0.634 | 0.178 | 0.311 | 0.879 | 0.73 | 0.889 | 0.693 | 0.412
2 | IA-LM | 0.805 | – | 0.98 | 0.748 | 0.661 | 0.819 | 0.877 | 0.648 | 0.404 | 0.136 | 0.519 | 0.706 | 0.575 | 0.573 | 0.74 | 1.02 | 0.864 | 0.816 | 0.85 | 0.68
3 | CAL-12T | 1.21 | 1.28 | 1.11 | 1.4 | 0.607 | 1.01 | 1.06 | 0.853 | 0.567 | 0.307 | 0.783 | 0.858 | 0.762 | 0.432 | 0.48 | 0.748 | 0.773 | 0.735 | 0.758 | 0.53
4 | NCI-H661 | 0.754 | 0.571 | 0.694 | 0.57 | 0.689 | 0.919 | 0.849 | 0.836 | 0.776 | 0.865 | 0.641 | 0.636 | 0.551 | 0.484 | 0.547 | 0.737 | 0.75 | 0.679 | 0.762 | 0.691
